Test results taken from patent publication US20240116946A1 (Gilead Sciences, Inc., priority 2022, published 2024).
Like-named read-outs stand apart in the source and are kept apart here.

Tests used:
[1] = target: recombinant SARS-CoV-2 Main protease (Mpro) (Severe acute respiratory syndrome coronavirus 2 (2019-nCoV) (SARS-CoV-2), UniProt P0DTD1); test: Cov Mpro Biochemical IC50 Assay
SARS-CoV-2-NLuc = test: microbe, parasite or virus in culture; format: cell-based, SARS Coronavirus 2
[2] = recombinant SARS-CoV-2 Mpro 7.5 nM, fluorogenic peptide substrate 40 μM, read-out: MPro IC50
[3] = Severe acute respiratory syndrome coronavirus, 48 h, read-out: MPro EC50
[4] = Severe acute respiratory syndrome coronavirus, 48 h; read-out: MPro EC50
[5] = recombinant SARS-CoV-2 Mpro, fluorogenic peptide substrate, read-out: MPro IC50

Row | Compound | IC50 [1, 2] | EC50 (SARS-CoV-2-NLuc; [3]) | IC50 [1, 5] | further results
1 | COc1cc(-c2cc3[nH]c(=O)n(-c4cncc5ccccc45)c(=O)c3cc2F)c(Cl)cc1F (single isomer, unassigned) [Example 1007, 7-(2-chloro-4-fluoro-5-methoxy-phenyl)-6-fluoro-3-(4-isoquinolyl)-1H-quinazoline-2,4-dione] | – | – | – | IC50 ([1]; MPro IC50, recombinant SARS-CoV-2 Mpro 7.5 nM, fluorogenic peptide substrate 40 μM): 331 nM; EC50 (SARS-CoV-2-NLuc; read-out: MPro EC50): 301 nM
2 | COc1cc(-c2cc3c(s2)c(=O)n(-c2cncc(C)c2)c(=O)n3CCC#N)c(C#N)cc1F [Example 876] | 2.76 nM | 6.25 nM | – | –
3 | COc1cnc(Cl)c(-c2cc3c(s2)c(=O)n(-c2cncc(C(F)F)c2)c(=O)n3CCC#N)c1 [Example 889] | 14.2 nM | – | – | EC50 (SARS-CoV-2-NLuc; [4]): 64.8 nM
4 | COc1ccc2cncc(-n3c(=O)[nH]c4cc(-c5c(Cl)cccc5-c5cc(C)c6ncnn6c5)sc4c3=O)c2c1 [Example 562, 6-[2-chloro-6-(8-methyl-[1,2,4]triazolo[1,5-a]pyridin-6-yl)phenyl]-3-(6-methoxy-4-isoquinolyl)-1H-thieno[3,2-d]pyrimidine-2,4-dione] | < 2.54 nM | 5.06 nM | – | –
5 | Cc1cc2ncnn2cc1-c1cc2[nH]c(=O)n(-c3cncc4ccccc34)c(=O)c2s1 [Example 15] | – | 25100 nM | 3970 nM | –
6 | O=c1[nH]c2cc(-c3c(F)cccc3Cl)ccc2c(=O)n1-c1cncc2ccccc12 [Example 162, 7-(2-Chloro-6-fluoro-phenyl)-3-(4-isoquinolyl)-1H-quinazoline-2,4-dione] | – | 392 nM | 344 nM | –
7 | COc1cc(-c2cc3c(s2)c(=O)n(-c2cncc4c2c(C)nn4C)c(=O)n3CCC#N)c(Cl)cc1F (single isomer, unassigned) [Example 1043, 3-(6-(2-chloro-4-fluoro-5-methoxyphenyl)-3-(1,3-dimethyl-1H-pyrazolo[3,4-c]pyridin-4-yl)-2,4-dioxo-3,4-dihydrothieno[3,2-d]pyrimidin-1(2H)-yl)propanenitrile] | > 1000 nM | – | – | EC50 (SARS-CoV-2-NLuc; read-out: MPro EC50): > 1000 nM
8 | Cc1ccncc1-n1c(=O)[nH]c2cc(-c3ccccc3Cl)ccc2c1=O [Example 121, 7-(2-chlorophenyl)-3-(4-methylpyridin-3-yl)quinazoline-2,4(1H,3H)-dione] | – | 1150 nM | 708 nM | –
9 | O=c1[nH]c2cc(-c3ccccc3OCc3ccccc3)ccc2c(=O)n1-c1cncc2ccccc12 [Example 57] | – | 1520 nM | 5450 nM | –
10 | O=c1[nH]c2cc(-c3c(Cl)cccc3Cl)sc2c(=O)n1-c1cncc(C2CC2)c1 [Example 370, 3-(5-cyclopropylpyridin-3-yl)-6-(2,6-dichlorophenyl)thieno[3,2-d]pyrimidine-2,4(1H,3H)-dione] | – | – | 273 nM | EC50 (SARS-CoV-2-NLuc; [4]): 388 nM
11 | COc1cc(-c2cc3c(s2)c(=O)n(-c2nncc4ccccc24)c(=O)n3CCC#N)c(Cl)cc1F [Example 929] | 5.72 nM | 2.76 nM | – | –
12 | COc1cc(-c2cc3c(s2)c(=O)n(-c2cncc4ccsc24)c(=O)n3CC2(C#N)CC2)c(Cl)cc1F [Example 655] | 3.4 nM | 3.31 nM | – | –
13 | Cc1cncc(-n2c(=O)c3sc(-c4cc(Cl)ccc4C#N)cc3n(CCC#N)c2=O)c1 [Example 879] | 4.33 nM | – | – | EC50 (SARS-CoV-2-NLuc; [4]): 20.4 nM
14 | COc1cc(-c2cc3c(s2)c(=O)n(-c2cncc4nc(-c5ccccc5F)n(C)c24)c(=O)n3CCC#N)c(Cl)cc1F [Example 756] | 19.6 nM | 90.7 nM | – | –
15 | COc1cc(-c2cc3c(s2)c(=O)n(-c2cncc4ccccc24)c(=O)n3CC(C)C#N)c(Cl)cc1F (stereo not shown) [Example 1096, 3-(6-(2-chloro-4-fluoro-5-methoxyphenyl)-3-(isoquinolin-4-yl)-2,4-dioxo-3,4-dihydrothieno[3,2-d]pyrimidin-1(2H)-yl)-2-methylpropanenitrile] | 10.4 nM | – | – | EC50 (SARS-CoV-2-NLuc; [4]): 15.9 nM
16 | COc1cc(-c2cc3c(s2)c(=O)n(-c2cnccc2C)c(=O)n3CCC#N)c(Cl)cc1F [Example 987, 3-[6-(2-chloro-4-fluoro-5-methoxy-phenyl)-3-(4-methyl-3-pyridyl)-2,4-dioxo-thieno[3,2-d]pyrimidin-1-yl]propanenitrile] | 5.68 nM | 5.97 nM | – | –
17 | COc1ccc(Cl)c(-c2cc3[nH]c(=O)n(-c4cncc5ccc(N6CCOCC6)cc45)c(=O)c3cc2F)c1 [Example 434] | 16 nM | – | – | EC50 (SARS-CoV-2-NLuc; [4]): 33.3 nM
18 | COc1ccc(C#N)c(-c2cc3[nH]c(=O)n(-c4cncc5cnccc45)c(=O)c3s2)c1 [Example 583] | 20.9 nM | 227 nM | – | –
19 | COc1ccc(Cl)c(-c2ccc3c(=O)n(-c4cncc5ccccc45)c(=S)[nH]c3c2)c1 [Example 240] | – | – | – | IC50 ([1]; MPro IC50, recombinant SARS-CoV-2 Mpro, fluorogenic peptide substrate): 1660 nM; EC50 (SARS-CoV-2-NLuc; [4]): 520 nM

Row | Compound | IC50 [1, 2] | EC50 (SARS-CoV-2-NLuc; [3]) | IC50 [1, 5] | further results
20 | NC(=O)c1cc(-c2cccc(Cl)c2-c2ccc3c(=O)n(-c4cncc5ccccc45)c(=O)[nH]c3c2)ccc1F [Example 260] | – | 10.3 nM | 15.3 nM | –
21 | COc1ccc(Cl)c(-c2cc3[nH]c(=O)n(-c4cncc5ccc(N6CCn7c(nnc7C(F)(F)F)C6)cc45)c(=O)c3s2)c1 [Example 603] | 2.75 nM | 14.6 nM | – | –
22 | COc1cc(-c2ccc3c(=O)n(-c4cncc5ccccc45)c(=O)n(CC#N)c3c2)c(Cl)cc1F [Example 897] | 11.2 nM | 85.4 nM | – | –
23 | NC(=O)c1ccccc1-c1cc2[nH]c(=O)n(-c3cncc4ccccc34)c(=O)c2s1 [Example 3] | – | > 50000 nM | 312 nM | –
24 | Cc1nc2cncc(-n3c(=O)c4sc(-c5ccc(F)cc5Cl)cc4n(CCC#N)c3=O)c2n1C (single isomer, unassigned) [Example 966, 3-(6-(2-chloro-4-fluorophenyl)-3-(1,2-dimethyl-1H-imidazo[4,5-c]pyridin-7-yl)-2,4-dioxo-3,4-dihydrothieno[3,2-d]pyrimidin-1(2H)-yl)propanenitrile] | 309 nM | – | – | EC50 (SARS-CoV-2-NLuc; read-out: MPro EC50): > 1000 nM
25 | COc1cnc(C#N)c(-c2cc3c(s2)c(=O)n(-c2cncc4nn(C)c(C)c24)c(=O)n3CCC#N)c1 [Example 1087] | 60.2 nM | > 1000 nM | – | –
26 | COc1cc(-c2cc3[nH]c(=O)n(-c4cncc5cccc(C)c45)c(=O)c3s2)c(Cl)cc1F (single isomer, unassigned) [Example 995, 6-(2-chloro-4-fluoro-5-methoxyphenyl)-3-(5-methylisoquinolin-4-yl)thieno[3,2-d]pyrimidine-2,4(1H,3H)-dione] | 3.27 nM | – | – | EC50 (SARS-CoV-2-NLuc; read-out: MPro EC50): 1.26 nM
27 | COc1cc(-c2cc3c(s2)c(=O)n(-c2cncc4c2n(C)c(=O)n4C)c(=O)n3CCC#N)c(Cl)cc1F [Example 937] | 8.42 nM | 11.4 nM | – | –
28 | COc1cc(-c2cc3c(s2)c(=O)n(-c2cc(C)cnn2)c(=O)n3CCC#N)c(Cl)cc1F [Example 931] | 2.53 nM | 5.48 nM | – | –
29 | N#Cc1ccc(OC(F)F)cc1-c1ccc2c(=O)n(-c3cncc4ccccc34)c(=O)[nH]c2c1 [Example 326] | – | 106 nM | 42.5 nM | –
30 | COc1cccc(C(N)=O)c1-c1ccc2c(=O)n(-c3cncc4ccccc34)c(=O)[nH]c2c1 [Example 72] | – | > 50000 nM | 8200 nM | –
31 | Cn1nnc2cncc(-n3c(=O)c4sc(-c5cc(Cl)ccc5C#N)cc4n(CCC#N)c3=O)c21 [Example 886] | 36.1 nM | 144 nM | – | –
32 | COc1cc(-c2cc3c(s2)c(=O)n(-c2cncc4cnn(C)c24)c(=O)n3CC#N)c(Cl)cc1F (single isomer, unassigned) [Example 1012, 2-[6-(2-chloro-4-fluoro-5-methoxy-phenyl)-3-(1-methylpyrazolo[4,3-c]pyridin-7-yl)-2,4-dioxo-thieno[3,2-d]pyrimidin-1-yl]acetonitrile] | 1.99 nM | – | – | EC50 (SARS-CoV-2-NLuc; read-out: MPro EC50): 3.19 nM
33 | COc1cc(-c2nc3c(s2)c(=O)n(-c2cncc4ccccc24)c(=O)n3CC#N)c(Cl)cc1F [Example 705] | 4.74 nM | 8.11 nM | – | –
34 | COc1ccc(C#N)c(-c2cc3[nH]c(=O)n(-c4cncc5ccsc45)c(=O)c3s2)c1 [Example 483] | < 2.54 nM | 18.1 nM | – | –
35 | COc1cncc(-n2c(=O)[nH]c3cc(-c4ccccc4Cl)sc3c2=O)c1 [Example 378] | – | – | 304 nM | EC50 (SARS-CoV-2-NLuc; [4]): 359 nM
36 | Cc1ccc(Cl)c(-c2cc3[nH]c(=O)n(-c4cncc5ccccc45)c(=O)c3s2)c1 [Example 338] | – | 37.5 nM | 13.8 nM | –
37 | COc1cc(-c2cc3c(s2)c(=O)n(-c2cncc(F)c2C)c(=O)n3CCC#N)c(Cl)cc1F (single isomer, unassigned) [Example 1026, 3-[6-(2-chloro-4-fluoro-5-methoxy-phenyl)-3-(5-fluoro-4-methyl-3-pyridyl)-2,4-dioxo-thieno[3,2-d]pyrimidin-1-yl]propanenitrile] | 3.08 nM | – | – | EC50 (SARS-CoV-2-NLuc; read-out: MPro EC50): 5.44 nM
38 | NC(=O)c1cncc(-c2cccc(Cl)c2-c2ccc3c(=O)n(-c4cncc5ccccc45)c(=O)[nH]c3c2)c1 [Example 185] | – | 489 nM | < 3.01 nM | –
